According to patent US10457707B2, “Substituted urea depsipeptide analogs as activators of the CLPP endopeptidase” (priority 2015, dated 2019):
≈ marks a conversion by molar mass, not a printed value. Where two headings read alike, the source gives them in different places. *1 amine or outer side, *2 acyl side, *3 side chain or, on linkers, in order; H or OH if unused. Where a SMILES comes first, the peptide text is derived from it. Bridges are numbered along the chain shown (N, C = ends). [ ]: non-standard residue; d: D form. The star is where a group is joined. NH(1,3-benzodioxol-5-yl) = c1cc2c(cc1N*)OCO2; Phe(3,5-F2) = N[C@@H](Cc1cc(F)cc(F)c1)C(=O)O; Pro(4S-Me) = C[C@@H]1CN[C@H](C(=O)O)C1; Pro(4R-Me) = C[C@H]1CN[C@H](C(=O)O)C1; NH(4-Me-phenyl) = Cc1ccc(N*)cc1; aThr = C[C@H](O)[C@H](N)C(=O)O; Pip = O=C(O)[C@@H]1CCCCN1; X3 = Cn1ccc2ccc(N*)cc21; CO = O=C([*:1])[*:2]

How the values were obtained:
Assay type in all cases: cell-based
[1] = system: Bacillus subtilis, ATCC 23857; assay: Minimal inhibitory concentration assay (microbroth dilution); details: Bacillus subtilis, ATCC23857, read-out: Minimal Inhibitory Concentrations B. subtilis ATCC 23857
Summary of the method: (§1)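 CLSI broth microdilution; 2-fold series from 200 μM final; inoculum ~10^5 cfu/mL; 37 °C, aerobic, overnight; visual MIC = lowest conc. without growth. The ClpP-inactivated USA 300 strain is the comparator for ClpP-dependent killing.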

[2] = system: Staphylococcus aureus, NRS70; assay: as above; details: Staphylococcus aureus, NRS70, read-out: Minimal Inhibitory Concentrations S. aureus NRS70
Summary of the method: as §1

[3] = system: Staphylococcus aureus, ATCC 29213; assay: as above; details: ATCC29213, read-out: Minimal Inhibitory Concentrations S. aureus ATCC 29213
Summary of the method: as §1

[4] = system: Enterococcus faecalis, ATCC 33186; assay: as above; details: Enterococcus faecalis, ATCC33186, read-out: Minimal Inhibitory Concentrations E. faecalis ATCC 33186
Summary of the method: as §1

[5] = Cytotoxicity assay (CellTiter-Glo cell viability, 72 hours); details: African green monkey
Protocol: Cytotoxicity was determined by determining the effect of compounds on cell viability. Vero (kidney epithelial cells; ATCC CCL-81) monolayers were trypsinized and 5000 cells/well were seeded (10-15% confluency) into white-wall, flat bottom 96 well microwell plates (Corning) using enriched Dulbecco's Modified Eagle's Medium (Hyclone:DMEM/High Glucose) containing 10% Fetal Bovine Serum (ATCC-30-2020). Plates were incubated overnight at 37° C. in the presence of 5% CO2. Drug-free media was then replaced with media containing serial dilutions of test compound or DMSO carrier. After an additional 72 hours of incubation, viability was indirectly measured using the CellTiter-Glo® Luminescent Cell Viability (Promega) assay. Assay plates were read at peak emission wavelength of 560 nm using a EnVision® Multilabel Plate Reader (Perkin Elmer) or PHERAstar FS Multilabel reader (BMG, Cary, N.C.). […] USA, www.graphpad.com]. For each experiment, compounds were tested in duplicate. IC50 values presented are the range of two biologically independent experiments.

[6] = system: Streptococcus pyogenes, ATCC 700294; assay: Minimal inhibitory concentration assay (microbroth dilution); details: Streptococcus pyogenes, ATCC700294, read-out: Minimal Inhibitory Concentrations S. pyogenes ATCC 700294
Summary of the method: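 CLSI broth microdilution: two-fold serial compound dilutions in appropriate broth, inoculated and incubated aerobically overnight at 37° C. MIC read visually as lowest concentration preventing bacterial growth.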

[7] = system: Staphylococcus aureus, USA 300; assay: Minimal inhibitory concentration assay; details: USA300, read-out: Minimal Inhibitory Concentrations S. aureus USA 300
Summary of the method: as §1

[8] = system: Staphylococcus aureus, USA 300 wherein ClpP is inactivated; assay: Minimal inhibitory concentration assay
Summary of the method: as §1

[9] = Vero cells, 72 hours, growth inhibition, read-out: Cytotoxicity IC50

SMILES	MIC [1] [µM]	MIC [2] [µM]	MIC [3] [µM]	MIC [4] [µM]	IC50 at 72 h [5, 9] [µM]	MIC [6] [µM]	MIC [7] [µM]	Minimal Inhibitory Concentrations S. aureus USA 300 ΔClpP [8] [µM]	IC50 at 72 h [5] [µM]
C[C@@H]1C[C@H]2C(=O)O[C@@H](C)[C@H](NC(=O)[C@H](Cc3cc(F)cc(F)c3)NC(=O)Nc3ccc4ccn(C)c4c3)C(=O)N3CCC[C@H]3C(=O)N3CCCC[C@H]3C(=O)N[C@@H](C)C(=O)N2C1 [Compound 306, (S)-3-(3,5-difluorophenyl)-2-(3-(1-methyl-1H-indol-6-yl)ureido)-N-((2R,6S,8aS,14aS,20S,21S,23aS)-2,6,21-trimethyl-5,8,14,19,23-pentaoxooctadecahydro-1H,5H,14H,19H-pyrido[2,1-i]dipyrrolo[2,1-c:2′,1′-l][1]oxa[4,7,10,13]tetraazacyclohexadecin-20-yl)propanamide] ({X3-CO}-[Phe(3,5-F2)][aThr]P[Pip]A[Pro(4R-Me)]; ester 2-C)	0.078 (≈ 0.0661 µg/mL)	0.078 (≈ 0.0661 µg/mL)	0.156 (≈ 0.132 µg/mL)	0.039 (≈ 0.033 µg/mL)	11.8 ± 0.8	0.313 (≈ 0.265 µg/mL)	0.156 (≈ 0.132 µg/mL)	>20	
C[C@H]1C[C@H]2C(=O)O[C@@H](C)[C@H](NC(=O)[C@H](Cc3cc(F)cc(F)c3)NC(=O)Nc3ccc4c(c3)OCO4)C(=O)N3CCC[C@H]3C(=O)N3CCCC[C@H]3C(=O)N[C@@H](C)C(=O)N2C1 [Compound 196, (S)-2-(3-(benzo[d][1,3]dioxol-5-yl)ureido)-3-(3,5-difluorophenyl)-N-((2R,6S,8aS,14aS,20S,21S,23aS)-2,6,21-trimethyl-5,8,14,19,23-pentaoxooctadecahydro-1H,5H,14H,19H-pyrido[2,1-i]dipyrrolo[2,1-c:2′,1′-l][1]oxa[4,7,10,13]tetraazacyclohexadecin-20-yl)propanamide] ({NH(1,3-benzodioxol-5-yl)-CO}-[Phe(3,5-F2)][aThr]P[Pip]A[Pro(4S-Me)]; ester 2-C)									52.8 ± 4.9
Cc1ccc(NC(=O)N[C@@H](Cc2cc(F)cc(F)c2)C(=O)N[C@@H]2C(=O)N3CCC[C@H]3C(=O)N3CCCC[C@H]3C(=O)N[C@@H](C)C(=O)N3C[C@@H](C)C[C@H]3C(=O)O[C@H]2C)cc1 [Compound 200, (S)-3-(3,5-difluorophenyl)-2-(3-(p-tolyl)ureido)-N-((2R,6S,8aS,14aS,20S,21S,23aS)-2,6,21-trimethyl-5,8,14,19,23-pentaoxooctadecahydro-1H,5H,14H,19H-pyrido[2,1-i]dipyrrolo[2,1-c:2′,1′-l][1]oxa[4,7,10,13]tetraazacyclohexadecin-20-yl)propanamide] ({NH(4-Me-phenyl)-CO}-[Phe(3,5-F2)][aThr]P[Pip]A[Pro(4S-Me)]; ester 2-C)					26.7 ± 3.6			100	
